Results from patent US5109133A, “Antibiotic trienomycins and their production” (priority 1985, dated 1992).
Entries after “also recorded” stand apart in the source; their conditions may differ. Like-named read-outs stand apart in the source and are kept apart here.

Columns and labels:
[1] = system: fungi; conditions: various fungi; known antibiotics; cited from earlier work
[2] = system: Piricularia oryzae KF 180; experiment: microbe, parasite or virus in culture; assay type: cell-based; conditions: at 1 mg/ml; read-out: Inhibitory zone
[3] = system: sarcoma-180; experiment: Antitumor activity, life prolongation in sarcoma-180-carcinoma-bearing ICR mice; assay type: in vivo; conditions: intraperitoneal, 1-5 days and 7-11 days
Source text: Trienomycin A, B or C is administrated intraperitoneally in sarcoma-180-carcinoma-bearing ICR mice for 1-5 days and 7-11 days. The life prolongation effects are observed as shown in the following: […]

[4] = Solubility; assay type: physicochemical
[5] = Stability; assay type: physicochemical
[6] = Nature (acidity); assay type: physicochemical
[7] = system: fungi; experiment: Antifungal activity (in words); assay type: cell-based; conditions: trienomycins
[8] = system: sarcoma-180 carcinoma cells; experiment: Growth inhibition of sarcoma-180 carcinoma cells; assay type: cell-based
[9] = system: HeLa S3 cells; experiment: Cytocidal action on HeLa S3 cells; conditions: for growth inhibitory activities: HeLa S3 cells
[10] = chloroform, dichloromethane, tetrahydrofuran, ethyl acetate, butyl acetate, acetone, methanol, ethanol
[11] = acidic condition at ambient temperature

Compound	antifungal activity [1]	zone of inhibition at 1000 µg/mL [2] [mm]	Life Prolongation Ratio ([3]; 10 mg/kg/day) [%]	Life Prolongation Ratio ([3]; 20 mg/kg/day) [%]	Solubility [4, 10]	Solubility ([4]; hexane, water)	Stability [5, 11]	Stability ([5]; alkaline condition over pH 10)	Nature [6]	antifungal activity [7]	growth inhibitory activities [8]	death of the HeLa S3 cells ([9]; 1.0 μg/ml)	growth inhibitory activities [9]	death of the HeLa S3 cells ([9]; 2.0 μg/ml)
COC1C=CC=CC=CCC(OC(=O)C(C)NC(=O)C2CCCCC2)C(C)C(O)C(C)=CCCc2cc(O)cc(c2O)NC(=O)C1 (stereo not drawn) [mycotrienin II]	exhibit antifungal activity against various fungi													
COC1C=CC=CC=CCC(OC(=O)C(C)NC(=O)C2CCCCC2)C(C)C(O)C(C)=CCCc2cc(O)cc(c2)NC(=O)C1 (stereo not drawn) [Trienomycin A]		20	33	76	Soluble	Insoluble	Stable	Instable	weakly acidic substance; also recorded: weak acidic substances	exhibit antifungal activity against some kind of fungi	growth inhibitory activities	death of the HeLa S3 cells	growth inhibitory activities	
COC1C=CC=CC=CCC(OC(=O)C(C)NC(=O)CC(C)C)C(C)C(O)C(C)=CCCc2cc(O)cc(c2)NC(=O)C1 (stereo not drawn) [Trienomycin B]		15	45	80	Soluble	Insoluble	Stable	Instable	weakly acidic substance; also recorded: weak acidic substances	exhibit antifungal activity against some kind of fungi	growth inhibitory activities		growth inhibitory activities	death of the HeLa S3 cells
CO[C@@H]1/C=C/C=C/C=C\C[C@H](OC(=O)[C@@H](C)NC(=O)CC(C)C)[C@@H](C)[C@H](O)/C(C)=C/CCC2=CC(=O)C=C(NC(=O)C1)C2=O [ansatrienin A3]	exhibit antifungal activity against various fungi													
CCC(C)C(=O)NC(C)C(=O)OC1CC=CC=CC=CC(OC)CC(=O)Nc2cc(O)cc(c2)CCC=C(C)C(O)C1C (stereo not drawn) [Trienomycin C]		12	50	110	Soluble	Insoluble	Stable	Instable	weakly acidic substance; also recorded: weak acidic substances	exhibit antifungal activity against some kind of fungi	growth inhibitory activities		growth inhibitory activities	death of the HeLa S3 cells
COC1C=CC=CC=CCC(OC(=O)C(C)NC(=O)C2CCCCC2)C(C)C(O)C(C)=CCCC2=CC(=O)C=C(NC(=O)C1)C2=O (stereo not drawn) [mycotrienin I]	exhibit antifungal activity against various fungi													
